According to US8778966B2, “Quinolinone derivatives as PARP and tank inhibitors” (Janssen Pharmaceutica, NV, priority 2007, dated 2014):

target: T1, TANK-2 enzyme (Homo sapiens, UniProt Q9H2K2); assay: In vitro Scintillation Proximity Assay (SPA) for TANK-2 inhibitory activity; type: biochemical; conditions: read-out: in vitro SPA assay TANK-2 pIC50 (converted)
T1 construct: made in house
T1 sequence (Q9H2K2 1-1166): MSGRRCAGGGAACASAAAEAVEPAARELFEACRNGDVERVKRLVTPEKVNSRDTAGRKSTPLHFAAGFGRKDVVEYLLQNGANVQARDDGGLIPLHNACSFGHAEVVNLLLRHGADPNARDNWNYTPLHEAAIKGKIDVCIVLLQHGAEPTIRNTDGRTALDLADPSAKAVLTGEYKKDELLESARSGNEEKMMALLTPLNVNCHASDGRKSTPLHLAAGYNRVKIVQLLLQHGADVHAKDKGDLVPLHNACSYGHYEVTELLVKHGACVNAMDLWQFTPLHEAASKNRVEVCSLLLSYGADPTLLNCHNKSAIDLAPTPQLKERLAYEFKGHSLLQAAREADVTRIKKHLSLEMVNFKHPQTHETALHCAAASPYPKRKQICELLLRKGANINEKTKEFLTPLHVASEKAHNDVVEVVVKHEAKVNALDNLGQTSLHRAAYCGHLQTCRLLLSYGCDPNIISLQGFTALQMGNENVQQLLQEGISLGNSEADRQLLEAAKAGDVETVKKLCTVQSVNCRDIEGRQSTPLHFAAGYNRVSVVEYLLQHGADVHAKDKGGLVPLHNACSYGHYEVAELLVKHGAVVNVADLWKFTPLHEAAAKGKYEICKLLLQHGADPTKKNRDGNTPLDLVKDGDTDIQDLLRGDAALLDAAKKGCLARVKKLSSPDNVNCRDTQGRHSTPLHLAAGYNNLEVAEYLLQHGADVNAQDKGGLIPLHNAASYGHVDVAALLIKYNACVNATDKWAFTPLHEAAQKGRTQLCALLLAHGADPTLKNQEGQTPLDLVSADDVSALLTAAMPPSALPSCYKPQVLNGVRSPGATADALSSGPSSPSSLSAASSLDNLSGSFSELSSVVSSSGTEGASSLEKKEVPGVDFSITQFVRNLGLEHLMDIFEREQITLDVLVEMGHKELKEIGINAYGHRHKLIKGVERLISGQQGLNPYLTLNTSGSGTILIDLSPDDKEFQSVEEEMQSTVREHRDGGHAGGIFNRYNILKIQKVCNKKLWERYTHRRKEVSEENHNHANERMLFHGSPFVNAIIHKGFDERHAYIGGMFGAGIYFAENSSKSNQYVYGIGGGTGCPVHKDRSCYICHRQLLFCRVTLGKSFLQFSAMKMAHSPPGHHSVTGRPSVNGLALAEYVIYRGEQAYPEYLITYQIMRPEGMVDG
Procedure, shortened: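 Results are pIC50 values, with IC50 interpolated linearly around 50% of blank-subtracted control cpm. They come from a scintillation proximity read of TANK-2 (8 μg/ml) self-modification with [3H]-NAD+/NAD, incubated 120 min at room temperature in pH 7.4 Tris buffer containing MgCl2 and DTT. Compounds were first screened at 10^−5 M.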

SMILES | IC50 [nM]
CCc1cc2ccc(C(C)(C#N)CCOc3ccc(C)cc3)cc2[nH]c1=O (stereo not drawn) [Compound 149] | 200
CCc1cc2ccc(C(C)(C#N)CCOc3cccc(Cl)c3)cc2[nH]c1=O (stereo not drawn) [Compound 151] | 200
CCc1cc2ccc(C(C)(C#N)CCOc3ccccc3Cl)cc2[nH]c1=O (stereo not drawn) [Compound 152] | 126
CCc1cc2ccc(C(C)(C#N)CCOc3ccccc3Br)cc2[nH]c1=O (stereo not drawn) [Compound 153] | 79.4
CCc1cc2ccc(C(C)(C#N)CCOc3ccc(Cl)cc3Cl)cc2[nH]c1=O (stereo not drawn) [Compound 154] | 200
CCc1cc2ccc(C(C)(C#N)CCOc3ccc(SC)cc3)cc2[nH]c1=O (stereo not drawn) [Compound 155] | 126
CCc1cc2ccc(C(C)(C#N)CC3CN(C)c4ccccc4O3)cc2[nH]c1=O (stereo not drawn) [Compound 156] | 398
CCc1cc2ccc(C(C)(C#N)CCOc3ccc4ccccc4c3)cc2[nH]c1=O (stereo not drawn) [Compound 157] | 316
CCc1cc2ccc(C(C)(C#N)CCOc3cccc4ccccc34)cc2[nH]c1=O (stereo not drawn) [Compound 158] | 501
CCc1cc2ccc(C(C)(C#N)CCOc3ccccc3C(C)=O)cc2[nH]c1=O (stereo not drawn) [Compound 159] | 251
CCc1cc2ccc(C(C)(C#N)CCOc3ccc(Br)cc3)cc2[nH]c1=O (stereo not drawn) [Compound 160] | 316
CCc1cc2ccc(C(C)(C#N)CCOc3ccc(C#N)cc3)cc2[nH]c1=O (stereo not drawn) [Compound 161] | 158
CCc1cc2ccc(C(C)(C#N)CCOc3ccc4oc(C)c(C)c4c3)cc2[nH]c1=O (stereo not drawn) [Compound 162] | 158
CCc1cc2ccc(C(C)(C#N)CCOc3cccc4c3OCCO4)cc2[nH]c1=O (stereo not drawn) [Compound 163] | 200
CCc1cc2ccc(C(C)(C#N)Cc3cccc(CCC#N)c3)cc2[nH]c1=O (stereo not drawn) [Compound 165] | 79.4
CCc1cc2ccc(C(C#N)(CCOc3ccccc3)C3CC3)cc2[nH]c1=O (stereo not drawn) [Compound 166] | 126
CCc1cc2ccc(C(C)(C#N)CCOc3ccc(C(C)(C)C)cc3)cc2[nH]c1=O (stereo not drawn) [Compound 167] | 794
CCc1cc2ccc(C(C)(C#N)CC#Cc3cccc(F)c3)cc2[nH]c1=O (stereo not drawn) [Compound 184] | 2510
Cc1cc2ccc([C@@](C)(C#N)[C@@H]3CCc4cc(C#N)ccc43)cc2[nH]c1=O [Compound 245] | 1000
CCc1cc2ccc([C@](C)(C#N)C[C@@H]3CCc4cc(C)ccc4O3)cc2[nH]c1=O [Compound 251] | 316
CCc1cc2ccc([C@@](C)(C#N)C[C@@H]3CCc4cc(C)ccc4O3)cc2[nH]c1=O [Compound 252] | 794
CCc1cc2ccc(C(C#N)(CC)CCOc3ccc(C#N)cc3)cc2[nH]c1=O (stereo not drawn) [Compound 271] | 501
Cc1cc2ccc([C@@](C)(C#N)[C@H]3CCc4cc(C#N)ccc43)cc2[nH]c1=O [Compound 389] | 3160
CCc1cc2ccc(C(C#N)(CC)C3CCc4ccc(F)cc43)cc2[nH]c1=O (stereo not drawn) [Compound 391] | 631
